Test results published in patent US8211445B2, “PSM peptides as vaccine targets against methicillin-resistant Staphylococcus” (The United States of America, as represented by the …, priority 2007, dated 2012).

Legend:
Format in all cases: cell-based
human neutrophils [1] = assay: Calcium ion flux in neutrophils (Fluo-3-AM); conditions: PSM-mec vs PSMα3; range similar to other α-type PSMs, in general higher than β-type PSMs (FIG. 21B)
Description: (§1) Neutrophils were subjected to a brief hypotonic shock with pyrogen-free water (Sigma), washed, and suspended at 5×10^6 cells/ml in HBSS containing 0.05% human serum albumin (HSA; CLB). Chemotaxis of neutrophils was determined by using fluorescently-labeled neutrophils that migrated through a membrane fitted into an insert of a 24-well microtiter plate transwell system (Costar) containing a prewetted 3-μm-pore-size polycarbonate filter as described (de Haas et al., J Exp Med 199, 687-95, 2004). For measurement of calcium ion fluxes, 5×10^6 neutrophils/ml were loaded with 2 μM Fluo-3-AM (Molecular Probes) in RPMI containing 0.05% HSA (RPMI-HSA) for 20 minutes at room temperature under agitation, washed twice with buffer, and resuspended in RPMI-HSA at 10^6 cells/ml. Calcium fluxes were analyzed with a FACScalibur (Becton Dickinson).
(§2) Neutrophils were subjected to a brief hypotonic shock with pyrogen-free water (Sigma), washed, and suspended at 5×10^6 cells/ml in HBSS containing 0.05% human serum albumin (HAS; CLB). Chemotaxis of neutrophils was determined by using fluorescently-labeled neutrophils that migrated through a membrane fitted into an insert of a 24-well microtiter plate transwell system (Costar) containing a prewetted 3-μm-pore-size polycarbonate filter. […] Calcium fluxes were analyzed with a FACScalibur (Becton Dickinson). […]

human neutrophils [2] = assay: Neutrophil chemotaxis (transwell); conditions: PSM-mec vs PSMα3; range similar to other α-type PSMs, in general higher than β-type PSMs (FIG. 21A)
Description: as §1, §2

human neutrophils [3] = assay: Lysis of human neutrophils (release of lactate dehydrogenase); conditions: synthetic PSM peptides at 10 μg/ml, LDH release (FIG. 4A)
Description: (§3) Lysis of PMNs by synthetic PSMs or clarified S. aureus culture media was determined essentially as described (Voyich et al., J Infect Dis 194, 1761-70, 2006; Voyich et al., J Immunol 175, 3907-19, 2005). Synthetic PSMs (1 or 10 μg/ml) were added to wells of a 96-well tissue culture plate containing 10^6 PMNs and plates were incubated at 37° C. for up to 3 hours. At the desired times, PMN lysis was determined by release of lactate dehydrogenase (LDH; Cytotoxicity Detection Kit, Roche Applied Sciences). Alternatively, wild-type and isogenic mutant S. aureus strains were cultured for 18 hours at 37° C. in 50 ml TSB with shaking using a 100 ml flask. Bacteria were removed by centrifugation and culture media were sterilized by filtration and stored at −80° C. in aliquots until used. Culture medium was diluted 1:10 in RPMI/H, mixed with human PMNs (10^6) and tested for its ability to cause PMN lysis.
as §3, with “above in Example 2.” for “(Voyich et al., J Infect Dis 194, 1761-70, 2006; Voyich et al., J Immunol 175, 3907-19, 2005).”
Human neutrophil assays: Human neutrophil isolation, chemotaxis, calcium ion flux, priming, lysis assays, and measurement of IL-8 production were performed as described in Example 2.

human neutrophils [4] = assay: Scanning electron microscopy of neutrophils exposed to PSMα3; conditions: PSMα3 10 μg/ml
Description: FIG. 4 includes several panels showing PSM-induced lysis of human neutrophils. FIG. 4A is a graph showing human neutrophil lysis, measured by release of lactate dehydrogenase (LDH) activity, with synthetic PSM peptides at 10 μg/ml. FIG. 4B is a graph showing human neutrophil lysis, measured by release of LDH activity, with culture filtrates of wild-type, PSM gene deletion and complemented CA- and HA-MRSA strains. Data represent means±SEM of at least three independent measurements. FIG. 4C is a series of digital images showing in vitro lysis of human neutrophils with synthetic PSMα3. Neutrophils were incubated with PSMα3 (10 μg/ml) and observed by scanning electron microscopy at the time intervals indicated, in comparison to untreated controls. […] The peak at ˜190 nm is indicative of α-helicity. […] FIG. 4F is a pair of graphs showing the infiltration and killing of […] leukocytes in a murine peritonitis model. Two hours after infection with the bacteria, neutrophils and monocytes were counted in peritoneal exudates, and dead and live cells were distinguished, using flow cytometry. The number of mice was n=5 for all samples except n=4 for MW2 samples (the results from one mouse in the MW2 wild-type and PSMα deletion strain samples were not included because of extensive bleeding). […]

Substance: fMEFVAKLFKFFKDLLGKFLGNN [PSMα3]
- calcium flux (human neutrophils [1]): most potent
- chemotactic activities (human neutrophils [2]): most potent
- lysis of human neutrophils in vitro (human neutrophils [3]): significant lysis
- state of neutrophils after 60 minutes (human neutrophils [4]): many neutrophils were completely destroyed
- time of exposure until signs of priming and compromised integrity of the plasma membrane (human neutrophils [4]): ≤ 5 min
